Data on 16 compounds can be found in US6251894A, “1-(1,2-disubstituted piperidinyl)-4 (fused imidazole)-piperidine derivatives” (Janssen Pharmaceuticals N.V., priority 1995, dated 2001).

SMILES strings stand for the structures. Where two headings read alike, the source gives them in different places.

Test [1] has as its system Substance P Induced Plasma Extravasation. As to the kind of experiment: Antagonism of substance P induced plasma extravasation in guinea-pigs. To be noted: Cavia porcellus, 1 hour prior to substance P. Format: in vivo, guinea-pig. Here is the method: Antagonism of Substance P Induced Plasma Extravasation in Guinea-pigs
Plasma travasation was induced by injection of substance P (2 mg/kg) in the femoral artery of female guinea-pigs. Evans Blue dye (30 mg/kg) was injected simultaneously. The test compound or solvent was administered subcutaneous (s.c.) or orally (p.o.) 1 hour prior to substance P injection. 10 minutes after challenge, the animals were checked for blue colouring (a direct measure for plasma extravasation) of the nose, the forepaws, and the conjunctiva. 30 minutes after challenge, the animals were sacrificed by CO2 gas inhalation and checked for blue colouring of the trachea and the urinary bladder. […]

Test [2] deals with Substance P Induced Relaxation of the Pig Coronary Arteries. Put plainly: Antagonism of substance P induced relaxation of the pig coronary arteries. The note with it: 30 min incubation. Here is the method:
Antagonism of Substance P Induced Relaxation of the Pig Coronary Arteries
Segments of coronary arteries taken from pigs (killed by injection of an overdose of sodium pentobarbital) were inverted and mounted for recording of isometric tension in organ baths (volume 20 ml) with the endothelium at the outside. The preparations were bathed in Krebs-Henseleit solution. The solution was kept at 37° C. and gassed with a mixture of O2 /CO2 (95/5). After stabilisation of the preparations, prostaglandin F2α (10^-5 M) was administered to induce a contraction. This was repeated until contractile responses became stable. Then prostaglandin F2α was again administered and substance P (3×10^-10 M and 10^-9 M cumulatively) was added. Substance P induced endothelium dependent relaxations. After washing away the agonists, a known concentration of a compound of formula (I) was added. After an incubation period of 30 minutes, prostaglandin F2α (10^-5 M) and the same concentrations of substance P as described above were again administered in the presence of the compound to be tested.

[3] abbreviates: sc, 10 min, s.c., conjunctiva, read-out: lowest active dose (LAD), conjunctiva.
[4] abbreviates: sc, 10 min, s.c., forepaws, read-out: lowest active dose (LAD), forepaws.
Where [5] appears, read: sc, 10 min, s.c., nose, read-out: lowest active dose (LAD), nose.
Where [6] appears, read: sc, 0.5 h, s.c., trachea, read-out: lowest active dose (LAD), trachea.
Where [7] appears, read: sc, 0.5 h, s.c., urinary bladder, read-out: lowest active dose (LAD), urinary bladder.
Setting [8] is: test compound concentration 3 × 10^-8 (unit not given).
[9] abbreviates: test compound concentration 3 × 10^-9 (unit not given).
The mark [10] stands for this setting: po, 10 min, p.o., conjunctiva, read-out: lowest active dose (LAD), conjunctiva.
Where [11] appears, read: po, 10 min, p.o., forepaws, read-out: lowest active dose (LAD), forepaws.
Where [12] appears, read: po, 10 min, p.o., nose, read-out: lowest active dose (LAD), nose.
Setting [13] is: po, 0.5 h, p.o., trachea, read-out: lowest active dose (LAD), trachea.
Setting [14] is: po, 0.5 h, p.o., urinary bladder, read-out: lowest active dose (LAD), urinary bladder.

Take `Cc1cc(C)cc(C(=O)N2CC[C@H](N3CCC(=C4c5ccccc5CCn5ccnc54)CC3)C[C@@H]2Cc2ccccc2)c1` (racemic) [Compound 1, (±)-cis-4-[4-(5,6-dihydro-11H-imidazo [2,1-b][3]benzazepin-11-ylidene)-1-piperidinyl]-1-(3,5-dimethylbenzoyl)-2-(phenylmethyl)piperidine]: the minimal effective dose in test [1] (setting [3]), in test [1] (setting [4]), in test [1] (setting [5]), in test [1] (setting [6]) and in test [1] (setting [7]) was 10 mg/kg each time. In addition, the “% inhibition of the response to 10^-9 M substance P” value in test [2] (setting [8]) came out at 52.3%.
As for `Cc1cc(C)cc(C(=O)N2CCC(N3CCC(C4c5ccccc5Cn5ccnc54)CC3)CC2Cc2ccccc2)c1` (stereo not drawn) [Compound 108], the minimal effective dose in test [1] (setting [3]), in test [1] (setting [4]), in test [1] (setting [5]), in test [1] (setting [6]) and in test [1] (setting [7]) was 10 mg/kg in each case. The “% inhibition of the response to 10^-9 M substance P” value in test [2] (setting [9]) is reported as 2.6%.
As to `O=C(c1cc(C(F)(F)F)cc(C(F)(F)F)c1)N1CC[C@@H](N2CCC(=C3c4ccsc4CCn4ccnc43)CC2)C[C@@H]1Cc1ccccc1` (relative stereo) [Compound 19], the minimal effective dose in test [1] (setting [3]) was determined as 2.5 mg/kg; in test [1] (setting [4]), 2.5 mg/kg; in test [1] (setting [5]), 2.5 mg/kg; in test [1] (setting [6]), 2.5 mg/kg; in test [1] (setting [7]), 10 mg/kg. For the same compound, the “% inhibition of the response to 10^-9 M substance P” value in test [2] (setting [9]) came out at 78.1%.
Turning to `Cc1cnc2n1CCc1ccccc1C2=C1CCN([C@H]2CCN(C(=O)c3cc(C(F)(F)F)cc(C(F)(F)F)c3)[C@@H](Cc3ccccc3)C2)CC1` (relative stereo) [Compound 53], the minimal effective dose in test [1] (setting [3]), in test [1] (setting [4]), in test [1] (setting [5]), in test [1] (setting [6]) and in test [1] (setting [7]) was 10 mg/kg each time. Besides, the “% inhibition of the response to 10^-9 M substance P” value in test [2] (setting [9]) is recorded as 44.4%.
On to `Cc1cc(C)cc(C(=O)N2CC[C@@H](N3CCC(C4c5ccccc5CCn5ccnc54)CC3)C[C@@H]2Cc2ccccc2)c1` (stereo partly drawn) [Compound 27], for which the minimal effective dose in test [1] (setting [3]) turned out to be 2.5 mg/kg; in test [1] (setting [4]), 2.5 mg/kg; in test [1] (setting [5]) it was 2.5 mg/kg; in test [1] (setting [6]) it was 10 mg/kg; in test [1] (setting [7]), 2.5 mg/kg. Besides, the “% inhibition of the response to 10^-9 M substance P” value in test [2] (setting [9]) is recorded as 5.1%.
Turning to `Cc1cc(C)cc(C(=O)N2CC[C@@H](N3CCC(=C4c5ccccc5CCn5c(C=O)cnc54)CC3)C[C@@H]2Cc2ccccc2)c1` (relative stereo) [Compound 25], the minimal effective dose in test [1] (setting [3]) was determined as 2.5 mg/kg; in test [1] (setting [4]) it was 2.5 mg/kg; in test [1] (setting [5]), 2.5 mg/kg; in test [1] (setting [6]), 10 mg/kg; in test [1] (setting [7]), 10 mg/kg. The “% inhibition of the response to 10^-9 M substance P” value in test [2] (setting [9]) is recorded as 100.0%.
`O=C(c1cc(C(F)(F)F)cc(C(F)(F)F)c1)N1CC[C@@H](N2CCC(=C3c4ccccc4CCn4c(CO)cnc43)CC2)C[C@@H]1Cc1ccccc1` (relative stereo) [Compound 5]: the minimal effective dose in test [1] (setting [10]) was found to be 2.5 mg/kg; in test [1] (setting [11]), 2.5 mg/kg; in test [1] (setting [12]) it was 2.5 mg/kg; in test [1] (setting [13]), 10 mg/kg; in test [1] (setting [14]), 10 mg/kg. In addition, the “% inhibition of the response to 10^-9 M substance P” value in test [2] (setting [9]) is given as 100.0%.
`O=C1Cn2ccnc2C(=C2CCN([C@H]3CCN(C(=O)c4cc(C(F)(F)F)cc(C(F)(F)F)c4)[C@@H](Cc4ccccc4)C3)CC2)c2ccsc21` (relative stereo) [Compound 106]: the minimal effective dose in test [1] (setting [10]), in test [1] (setting [11]), in test [1] (setting [12]), in test [1] (setting [13]) and in test [1] (setting [14]) was 10 mg/kg throughout. In test [2] (setting [9]), the “% inhibition of the response to 10^-9 M substance P” value is on record as 92.3%.
For the compound `O=C(c1cc(C(F)(F)F)cc(C(F)(F)F)c1)N1CC[C@@H](N2CCC(=C3c4ccsc4CCn4ccnc43)CC2)C[C@H]1Cc1ccccc1` (relative stereo) [Compound 18], the minimal effective dose in test [1] (setting [3]) came to 2.5 mg/kg; in test [1] (setting [4]) it was 10 mg/kg; in test [1] (setting [5]), 10 mg/kg; in test [1] (setting [6]), 10 mg/kg; in test [1] (setting [7]), 10 mg/kg. Moreover, the “% inhibition of the response to 10^-9 M substance P” value in test [2] (setting [9]) worked out at 39.8%.
Take `Cc1cc(C)cc(C(=O)N2CC[C@@H](N3CCC(=C4c5ccn(C)c5CCn5ccnc54)CC3)C[C@@H]2Cc2ccccc2)c1` (relative stereo) [Compound 34]: the minimal effective dose worked out at 2.5 mg/kg in test [1] (setting [3]); 0.63 mg/kg in test [1] (setting [4]); 0.63 mg/kg in test [1] (setting [5]); 0.63 mg/kg in test [1] (setting [6]); 0.63 mg/kg in test [1] (setting [7]). Further, the “% inhibition of the response to 10^-9 M substance P” value in test [2] (setting [9]) was found to be 43.5%.
With `Cc1cc(C)cc(C(=O)N2CC[C@@H](N3CCC(=C4c5ccccc5CCn5c(CO)cnc54)CC3)C[C@@H]2Cc2ccccc2)c1` (relative stereo) [Compound 20], the minimal effective dose in test [1] (setting [3]), in test [1] (setting [4]), in test [1] (setting [5]), in test [1] (setting [6]) and in test [1] (setting [7]) was 2.5 mg/kg in each case. Besides, the “% inhibition of the response to 10^-9 M substance P” value in test [2] (setting [9]) was 9.5%.
Turning to `O=C(c1cc(C(F)(F)F)cc(C(F)(F)F)c1)N1CC[C@@H](N2CCC(=C3c4sccc4CCn4ccnc43)CC2)C[C@@H]1Cc1ccccc1` (relative stereo) [Compound 7], the minimal effective dose came to 2.5 mg/kg in test [1] (setting [3]); 10 mg/kg in test [1] (setting [4]); 2.5 mg/kg in test [1] (setting [5]); 10 mg/kg in test [1] (setting [6]); 10 mg/kg in test [1] (setting [7]). Also, in test [2] (setting [9]), the “% inhibition of the response to 10^-9 M substance P” value is 83.1%.
On to `O=C(c1cc(C(F)(F)F)cc(C(F)(F)F)c1)N1CC[C@@H](N2CCC(C3c4ccccc4Cn4c3nc3ccccc34)CC2)C[C@@H]1Cc1ccccc1` (mixture of isomers) [Compound 15, (±)-trans-1-[3,5-bis(trifluoromethyl)benzoyl]-4-[4-(6,11-dihydrobenzimidazo[1,2-b]isoquinolin-6-yl)-1-piperidinyl]-2-phenylmethyl)piperidine], for which the minimal effective dose in test [1] (setting [10]), in test [1] (setting [11]), in test [1] (setting [12]), in test [1] (setting [13]) and in test [1] (setting [14]) was 10 mg/kg each time. Besides, the “% inhibition of the response to 10^-9 M substance P” value in test [2] (setting [8]) is given as 95.4%.
With `O=Cc1cnc2n1CCc1ccccc1C2=C1CCN([C@H]2CCN(C(=O)c3cc(C(F)(F)F)cc(C(F)(F)F)c3)[C@@H](Cc3ccccc3)C2)CC1` (racemic) [Compound 11, (±)-cis-1-[3,5-bis(trifluoromethyl)benzoyl]-4-[4-(3-formyl-5,6-dihydro-11H-imidazo[2,1-b][3]benzazepin-11-ylidene)-1-piperidinyl]-2-(phenylmethyl)piperidine], the minimal effective dose in test [1] (setting [10]), in test [1] (setting [11]), in test [1] (setting [12]), in test [1] (setting [13]) and in test [1] (setting [14]) was 10 mg/kg each time. Also, the “% inhibition of the response to 10^-9 M substance P” value in test [2] (setting [9]) was 96.1%.
As for `Cc1cc(C)cc(C(=O)N2CC[C@@H](N3CCC(=C4c5ccsc5C(=O)Cn5ccnc54)CC3)C[C@@H]2Cc2ccccc2)c1` (relative stereo) [Compound 112], the minimal effective dose was 0.63 mg/kg in test [1] (setting [3]); 0.63 mg/kg in test [1] (setting [4]); 0.63 mg/kg in test [1] (setting [5]); 10 mg/kg in test [1] (setting [6]); 2.5 mg/kg in test [1] (setting [7]). Moreover, the “% inhibition of the response to 10^-9 M substance P” value in test [2] (setting [9]) came out at 66.7%.
Regarding `O=C(c1cc(C(F)(F)F)cc(C(F)(F)F)c1)N1CC[C@H](N2CCC(=C3c4ccccc4CCn4c3nc3ccccc34)CC2)C[C@H]1Cc1ccccc1` (relative stereo) [Compound 72], the minimal effective dose in test [1] (setting [10]), in test [1] (setting [11]), in test [1] (setting [12]), in test [1] (setting [13]) and in test [1] (setting [14]) was 10 mg/kg throughout. For the same compound, the “% inhibition of the response to 10^-9 M substance P” value in test [2] (setting [9]) is on record as 97.4%.
